Consider seven compounds from patent publication US8044042B2, “Thienotriazolodiazepine compound and medicinal use thereof” (Mitsubishi Tanabe Pharma Corporation, priority 2005, dated 2011).

Like-named read-outs stand apart in the source and are kept apart here. Bounds are passed on as bounds.

Test [1] relates to TYPE II Collagen-Induced Arthritis in DBA/1J Mouse. Briefly: Type II collagen-induced arthritis in DBA/1J mouse. The format is in vivo. The conditions noted are these: 840 h; for inhibition in vivo at 3 mg/kg: 3 mg/kg oral, 2 weeks from booster, average arthritis score at 35 days after primary immunization, P <0.05, read-out: suppressing rate (%) of arthritis score; for inhibition in vivo at 10 mg/kg: po, read-out: suppressing rate (%) of arthritis score. Here is the method: Bovine Type II collagen (purchased from collagen technical workshop) (100-200 μg) was mixed with complete Freund's adjuvant (manufactured by Sigma-Aldrich Ltd.) containing killed tuberculosis H37Ra. Using the resulting emulsion, 6 to 7-week-old male DBA/1J mice (CHARLES RIVER LABORATORIES JAPAN, INC.) were subcutaneously immunized at the tail root twice at 3 week intervals, whereby arthritis was developed. A test compound was suspended or dissolved in 0.5% carboxymethylcellulose (manufactured by Sigma-Aldrich Ltd.), and repetitively administered orally at a dose of 0.1-30 mg/kg body weight using an oral gavage needle for 2 weeks from the day of booster. As to this model, the symptoms of arthritis of four limbs were evaluated based on the following judgment criteria using the scores of from 0 to 4. The arthritis score of each mouse was shown by the total of the scores of four limbs (maximum: 16 points).
As regards the arthritis score, each group (n=5-6) was evaluated using an average value and mean error, with a group administered only with a vehicle being control, and Mann-Whitney U test was used for statistical analysis, wherein p value of 0.05 or below was determined to be significant. In the following, the suppressive action of the compound of the present invention on mouse collagen induced arthritis is shown by the suppressing rate (%) (1−(average arthritis score of compound administration group)/(average arthritis score of control group)×100) calculated from the average arthritis score at 35 days after the primary immunization.

Test [2] deals with Experimental Autoimmune Encephalomyelitis in SJL/J Mouse. Description: Experimental autoimmune encephalomyelitis in SJL/J mouse. The conditions noted are these: 30 mg/kg oral, 3 weeks from immunization; average EAE score at 14 days after immunization; P <0.05. The format is in vivo. Here is the method: The 139th-151st peptides (50 μg) of rat-derived proteolipid protein (manufactured by Bachem) was mixed with complete Freund's adjuvant containing killed tuberculosis H37Ra. Using the resulting emulsion, 10-week-old female SJL/J mice (CHARLES RIVER LABORATORIES JAPAN, INC.) were subcutaneously immunized on the back, whereby experimental autoimmune encephalomyelitis (EAE) was developed. The compound of the present invention or a pharmaceutically acceptable salt thereof was suspended or dissolved in 0.5% carboxymethylcellulose (manufactured by Sigma-Aldrich Ltd.), and repetitively administered orally at a dose of 3-30 mg/kg body weight using an oral gavage needle for 3 weeks from the day of immunization. As to this model, the symptoms of EAE were evaluated based on the following judgment criteria using the scores of from 0 to 5.
As regards the EAE score, each group (n=10) was evaluated using an average value and mean error, with a group administered only with a vehicle being control, and Mann-Whitney U test was used for statistical analysis, wherein p value of 0.05 or below was determined to be significant. In the following, the suppressive action of the compound of the present invention on EAE is shown by the suppressing rate (%) calculated from the average EAE score at 14 days after the immunization. […] From the results, the compound is considered effective for encephalomyelitis, multiple sclerosis and the like.

Test [3] relates to Mouse Graft-Versus-Host Reaction (GvHR). Briefly: Mouse graft-versus-host reaction (GvHR). Format: in vivo. Particulars: P <0.05 vs vehicle. Here is the method:
Cyclophosphamide (manufactured by Shionogi & Co., Ltd.) is administered to male BDF1 recipient mouse (8-week-old, CHARLES RIVER LABORATORIES JAPAN, INC.) at a dose of 300 mg/kg from the tail vein as a pretreatment at 24 hr prior to injection of spleen cells. The spleen was aseptically isolated from male C57BL/6 donor mouse (8-week-old, CHARLES RIVER LABORATORIES JAPAN, INC.), minced in RPMI1640 medium (manufactured by Sigma-Aldrich Ltd.), and passed through a stainless mesh to give a splenocyte single cell suspension. After removal of red blood cells by a hypotonic treatment using a mixed solution of 0.83% aqueous ammonium chloride and Tris-HCl buffer (pH 7.65) at 9:1, splenocytes were washed and suspended in physiological saline to give a splenocyte suspension. The prepared cells were injected at 1×10^8 cells/mouse into the tail vein to induce acute GvHR. The compound of the present invention or a pharmaceutically acceptable salt thereof was suspended or dissolved in 0.5% carboxymethylcellulose, and repetitively administered orally at a dose of 3-30 mg/kg body weight for 28 days from the day of splenocyte injection, and the influence on the survival time was evaluated. After induction of acute GvHR, the survival of each individual was determined every day, and the day of confirmed death was taken as the survival time of each individual. As for the survival time, log-rank test analysis was performed using the group administered with vehicle alone as a control, and the multiplicity was adjusted by the Holm's method, wherein p value of 0.05 or below was determined to be significant.

For test [4], the system named is CD28-dependent T cell growth. Briefly: Mouse T cell proliferation stimulated with anti-CD28 antibody and PMA (tritiumthymidine uptake). Format: cell-based. Particulars: for IC50: BALB/c mouse T cells, 10 ng/mL PMA and 250 ng/mL anti-CD28 antibody, tritiumthymidine uptake, read-out: CD28-dependent T cell growth suppressive action (IC50); for CD28-dependent T cell growth suppressive action (in words): mouse T cells stimulated with PMA and anti-CD28 antibody. Here is the method:
The spleen was aseptically isolated from 6-7-week-old male BALB/c mice (CHARLES RIVER LABORATORIES JAPAN, INC.), and splenocyte suspension was prepared using RPMI1640 medium (manufactured by Sigma-Aldrich Ltd.). After hemolysis by a hypotonic treatment using a mixed solution of 0.83% aqueous ammonium chloride and Tris-HCl buffer (pH 7.65) at 9:1, a T cell concentrated fraction was obtained using a T cell concentrated column (manufactured by R&D systems). A cell suspension prepared using RPMI1640 medium containing 10% fetal calf serum (FCS, manufactured by Sigma-Aldrich Ltd.) was added to a flat-bottomed 96 well microtest plate (manufactured by Becton, Dickinson and Company) at 5×10^5 cells/well. Furthermore, a test compound diluted with a medium to the final concentration of 1-10000 nmol/L, 10 ng/mL PMA (manufactured by Sigma-Aldrich Ltd.) and 250 ng/mL anti-CD28 antibody (manufactured by BD pharmingen) were added, and the mixture was cultured under the conditions of 37° C., 5% carbon dioxide, 95% air for 20 hr. After the completion of culture, tritiumthymidine (specific activity: […], manufactured by MP Biochemicals) was added at 18.5 kBq/well, and the mixture was further cultured for 4 hr. Then, the cells were recovered in a glass fiber filter using a cell harvester (manufactured by Molecular Devices Corp.), the radioactivity taken into the cells was measured using a plate scintillation counter (microbeta 1460, manufactured by PerkinElmer), based on which the mouse T cell growth induced by stimulation with PMA and anti-CD28 antibody was measured. To be specific, suppressing rate (%)=(1−(radioactivity (cpm) of well added with test compound)/(radioactivity (cpm) of well without addition of test compound))×100 was calculated from the average amount of tritiumthymidine uptake (cpm) of T cells in each well added with various concentrations of test compound. In addition, based on the dose response curve obtained by plotting the average tritiumthymidine uptake amount (cpm) or suppressing rate on the vertical axis and the concentration on the transverse axis, the concentration of the compound (IC50) suppressing the value to 50% of that of the control group was determined by nonlinear regression.

The test system of test [5] is Biphasic Auricular Edema in Egg Albumin-Induced Mouse. Description: Egg albumin-induced mouse biphasic auricular edema. The conditions noted are these: for suppressing rate (%) of auricular edema: 24 hr later, P <0.05; for suppressive action on edema (in words): 24 hr after induction with egg albumin. Format: in vivo. Here is the method:
Using saline (0.5 ml) containing egg albumin (10 μg, manufactured by Sigma-Aldrich Ltd.) and 1 mg of aluminum hydroxide gel, 6 to 7-week-old male BALB/c mice (CHARLES RIVER LABORATORIES JAPAN, INC.) were intraperitoneally immunized. Two weeks later, egg albumin (1.25 μg) was intradermally injected into the auricle of the mice for challenge, whereby biphasic auricular edema was induced 1 hr and 24 hr after the challenge. The compound of the present invention or a pharmaceutically acceptable salt thereof was suspended or dissolved in 0.5% carboxymethylcellulose, and repetitively administered orally at a dose of 0.01-30 mg/kg body weight for 3 days, from 2 days before the antigen challenge to the day of challenge, using an oral gavage needle. As for this model, the thickness of the auricle of the mouse was measured using a dial gauge (manufactured by Ozaki MFG. Co. Ltd.) and used as an index of auricular edema. As regards the thickness of the auricle, each group (n=8) was evaluated using an average value and mean error, with a group administered only with a vehicle being control, and t-test was used for statistical analysis, wherein p value of 0.05 or below was determined to be significant.

Turning to `CCOC(=O)C[C@@H]1N=C(c2ccc(NCc3ccc(F)cc3)cc2)c2c(sc(C)c2C)-n2c(C)nnc21` [Example 163, Ethyl (S)-(4-{4-[(4-fluorophenyl)methylamino]phenyl}-2,3,9-trimethyl-6H-thieno[3,2-f][1,2,4]triazolo[4,3-a][1,4]diazepin-6-yl)acetate], the inhibition in vivo at 3 mg/kg in test [1] came to 57.4%. Besides, the “suppressing rate (%) of EAE score” value in test [2] worked out at 60%. Also, in test [3] (10 mg/kg oral for 28 days from splenocyte injection), the median survival time is given as 19 days. For the same compound, the concentration for half-maximal inhibition (IC50) in test [4] (T-cell) was 70 nM. Further, in test [4], the “CD28-dependent T cell growth suppressive action (in words)” value is “have a CD28-dependent T cell growth suppressive action”. In addition, the “suppressing rate (%) of auricular edema” value in test [5] (3 mg/kg oral for 3 days) was 44.5%. In addition, the “suppressive action on edema (in words)” value in test [5] (3 mg/kg) was “significant suppressive action on edema”.

Turning to `Cc1sc2c(c1C)C(c1ccc(NCc3ccccc3)cc1)=NCc1nnc(C)n1-2` [Example 335, 4-(4-benzylaminophenyl)-2,3,9-trimethyl-6H-thieno[3,2-f][1,2,4]triazolo[4,3-a][1,4]diazepine], the inhibition in vivo at 10 mg/kg in test [1] was determined as 65.5%. Moreover, the “suppressing rate (%) of EAE score” value in test [2] came out at 53%. In addition, in test [3] (30 mg/kg oral for 28 days from splenocyte injection), the median survival time came to 36.5 days. Besides, in test [4] (T-cell), the concentration for half-maximal inhibition (IC50) turned out to be 190 nM. The “CD28-dependent T cell growth suppressive action (in words)” value in test [4] is reported as “have a CD28-dependent T cell growth suppressive action”. For the same compound, the “suppressing rate (%) of auricular edema” value in test [5] (10 mg/kg oral for 3 days) came to 45.1%. Besides, the “suppressive action on edema (in words)” value in test [5] (10 mg/kg) is “significant suppressive action on edema”.

For the compound `COC(=O)C[C@@H]1N=C(c2ccc(-c3ccccc3)cc2)c2c(sc(C)c2C)-n2c(C)nnc21` [Example 61, Methyl (S)-{4-biphenyl-2,3,9-trimethyl-6H-thieno[3,2-f][1,2,4]triazolo[4,3-a][1,4]diazepin-6-yl}acetate], in test [4], the half-maximal inhibitory concentration (IC50) amounted to 55 nM and the “CD28-dependent T cell growth suppressive action (in words)” value was “have a CD28-dependent T cell growth suppressive action”.

As for `Cc1sc2c(c1C)C(c1ccc(-c3cccc(C#N)c3)cc1)=NCc1nnc(C)n1-2` [Example 253, 4-(3′-cyanobiphenyl-4-yl)-2,3,9-trimethyl-6H-thieno[3,2-f][1,2,4]triazolo[4,3-a][1,4]diazepin], the inhibition in vivo at 10 mg/kg in test [1] is 46.4%. For the same compound, the IC50 in test [4] (T-cell) turned out to be 100 nM. Besides, the “CD28-dependent T cell growth suppressive action (in words)” value in test [4] was “have a CD28-dependent T cell growth suppressive action”.

For `COC(=O)C[C@@H]1N=C(c2ccc(Nc3ccccc3)cc2)c2c(sc(C)c2C)-n2c(C)nnc21` [Example 120, Methyl (S)-{2,3,9-trimethyl-4-(4-phenylaminophenyl)-6H-thieno[3,2-f][1,2,4]triazolo[4,3-a][1,4]diazepin-6-yl}acetate], the inhibition in vivo at 3 mg/kg in test [1] was 53.1%. In addition, the IC50 in test [4] (T-cell) came to 1.1 nM. In addition, the “CD28-dependent T cell growth suppressive action (in words)” value in test [4] is “have a CD28-dependent T cell growth suppressive action”.

With `COC(=O)C[C@@H]1N=C(c2ccc(NC(=O)CCc3ccccc3)cc2)c2c(sc(C)c2C)-n2c(C)nnc21` [Example 311, Methyl (S)-{2,3,9-trimethyl-4-[4-(3-phenylpropionylamino)phenyl]-6H-thieno[3,2-f][1,2,4]triazolo[4,3-a][1,4]diazepin-6-yl}acetate], the inhibition in vivo at 3 mg/kg in test [1] stood at 85.2%. For the same compound, the IC50 in test [4] (T-cell) turned out to be 25 nM. The “CD28-dependent T cell growth suppressive action (in words)” value in test [4] is listed as “have a CD28-dependent T cell growth suppressive action”.

Regarding `C=CC[C@@H]1/C=C(\C)C[C@H](C)C[C@H](OC)[C@H]2O[C@@](O)(C(=O)C(=O)N3CCCC[C@H]3C(=O)O[C@H](/C(C)=C/[C@@H]3CC[C@@H](O)[C@H](OC)C3)[C@H](C)[C@@H](O)CC1=O)[C@H](C)C[C@@H]2OC` [Tacrolimus, tacrolimus, reference compound], in test [4] (1 μM, calcineurin inhibitor), the “inhibition of T cell growth at 1 μM (in words)” value is reported as “hardly inhibits the growth even at 1 μM”. Besides, in test [4] (T-cell), the IC50 is > 1000 nM.
